Measured values from patent publication US12605397B2, “Deoxy-cytidine or uridine derivatives for use in cancer therapies” (HEMISPHERIAN AS, priority 2019, dated 2026).
“Also recorded” adds a separate entry of the source. Like-named read-outs stand apart in the source and are kept apart here.

Legend:
22Rv1 cells = assay: Survival assay (MTT), 22Rv1; type: cell-based, human; settings: Homo sapiens
Procedure: (§1) Cells were passed between 70 and 90% confluence.
(§2) Cells were incubated with the drugs for 72 hours.

HAP1 cells = assay: Survival assay (MTT), HAP1; type: cell-based, human
Procedure: as §2

V79 cells = assay: Survival assay (MTT), V79; type: cell-based; settings: Cricetulus griseus, V79, Chinese Hamster Lung, 72 hours
Procedure: as §1, §2

SF188 cells = assay: Survival assay (MTT), SF188; type: cell-based, human; settings: Homo sapiens, SF-188, SF188, Glioma, Grade IV, 72 hours
Procedure: as §1, §2

DIPG007 cells = assay: Survival assay (MTT), DIPG007; type: cell-based, human; settings: Homo sapiens, DIPG007, Glioma, Grade IV, 72 hours
Procedure: as §1, §2

Buffy A cells = assay: Survival assay (MTT), Buffy A; type: cell-based, human; settings: Homo sapiens, Normal, Bone Marrow, 72 hours
Procedure: as §1, §2
(§3) The present inventors further investigated the extent to which these compounds kill normal human cells; low cytotoxicity against normal human cells is advantageous property for anti-cancer agents. The cytotoxicity of these compounds in various normal human cell lines was therefore investigated (Table 3). Cells were grown and the survival assay was performed as described above (Materials and Methods).

Buffy C cells = assay: Survival assay (MTT), Buffy C; type: cell-based, human; settings: Homo sapiens, Normal, Bone Marrow, 72 hours
Procedure: as §1, §2, §3

Buffy M cells = assay: Survival assay (MTT), Buffy M; type: cell-based, human; settings: Homo sapiens, Normal, Bone Marrow, 72 hours
Procedure: as §1, §2, §3

[1] = system: normal (non-cancerous) human cell lines; assay: Survival assay, panel of normal (non-cancerous) human cell lines; type: cell-based; settings: normal human cell lines of Table 3
Procedure: as §2, §3

human cancer cell lines = assay: Survival assay, range of human cancer cell lines; type: cell-based; settings: cell lines of Table 1
Procedure: as §2
With the knowledge that 5-formyl-2′-deoxycytidine is cytotoxic to cervical carcinoma (HeLa) cells, the study was expanded in two directions: (i) a further compound was assessed: 5-carboxyl-2′-deoxycytidine; and (ii) their cytotoxic effects against a wide range of human cancer cell lines was assessed (Table 1).

[2] = mouse, in vivo, ip
Procedure: 5-hydroxymethyl-2′-deoxycytidine and 5-formyl-2′-deoxycytidine (Berry and Associates), were formulated in dimethyl sulfoxide (DMSO)/Solutol (RTM) R HS15/phosphate buffered saline (PBS) (5/5/90, v/v/v) at the concentration of 30 and 200 and 400 mg/mL for IP administration at the dosing volume of […]. A dosing volume at 10 or 20 ml/kg was applied.
Male ICR mice weighing 23±3 g were provided by BioLasco Taiwan (under Charles River Laboratories Licensee). […] All animals were maintained in a hygienic environment with controlled temperature (20-24° C.), humidity (30%-70%) and 12 hours light/dark cycles. Free access to sterilized standard lab diet [MFG (Oriental Yeast Co., Ltd., Japan)] and autoclaved tap water were granted.
5-hydroxymethyl-2′-deoxycytidine and 5-formyl-2′-deoxycytidine were administered IP to groups of three male ICR mice weighing 23±3 g. Animals received an initial dose of 300 mg/kg. If the animals survived for 72 hours, the dose for the next cohort was increased. If one or more animals died, the dose for the next cohort was decreased. The testing stopped when all animals survived at the upper bound, or when three dose levels had been tested or when the upper or lower bound had been reached. […] Body weights were recorded pre-dose and at 72 hours. […] Gross necropsy was performed on all animals without tissue collection, and the next dose level was determined based on the study design table.
The maximum tolerated dose (MTD) of these compounds in mice was determined as described above (Materials and Methods). […] While the end-point of the study was survival after 72 hours, the presence of acute toxic symptoms (mortality, convulsions, tremors, muscle relaxation, sedation, etc.) and autonomic effects (diarrhea, salivation, lacrimation, vasodilation, piloerection, etc.) in the animals was monitored during the first 30 minutes, and again at 1, 24, 48 and 72 hours. Body weights were recorded pre-dose and at 72 hours.

[3] = Multiple MTD, repeated dose; type: in vivo; settings: mice, IP 300, 1000, 2000 mg/kg every three days, 5 doses
Procedure: The test compounds were dosed every three days for a total of 5 doses (q3dx5).
In addition, body weights were recorded before each treatment and at 24, 48 and 72 hours after the final administration.
Mice were injected with the indicated compound at the indicated dose intraperitoneally once every three days for a total of 5 doses.

[4] = system: Hypoxanthine-guanine phosphoribosyltransferase (HPRT) gene in V79 cells; assay: HPRT mutagenicity assay; type: cell-based, Chinese Hamster; settings: V79 cells, 1, 10, 100 μM, 24 hours
Procedure: HPRT mutagenicity assay was performed in V79 cells. 50,000 V79 cells were treated with three different concentrations of either d5hmC or d5fC (1, 10, 100 μM) for 24 hours in a 6 well plate. DMSO was used as a negative control. After the treatment, the cells were subcultured as needed in T75 flasks for 9 days to allow expression of HPRT-mutants. 10,000 cells were replated into 10 replica Petri dishes (100×15 mm) with selective media (2.5 μg/ml of 6TG).
Survival (relative plating efficiency) was determined by plating 200 cells into four replica Petri dishes (60×15 mm) without selective media. Colonies were fixed, Giemsa-stained and counted 7 days later. The mutant frequency is expressed as a total number of mutants counted on all plates divided by the number of cells seeded corrected by reseeding plating efficiency. Experiment was performed three times, data represent mean of triplicate±SEM.

glioblastoma multiforme = glioblastoma multiforme patients; cited from earlier work
H1437 cells = assay: Survival assay (MTT), H1437; type: cell-based; settings: Homo sapiens, NCI-H1437
Procedure: as §1, §2

H1573 cells = assay: Survival assay (MTT), H1573; type: cell-based; settings: Homo sapiens, NCI-H1573
Procedure: as §1, §2

[5] = 22Rv1, 22Rv1, Tables 6 and 7, unit inferred
[6] = 22Rv1, 72 h, 22Rv1, Prostate Carcinoma, 72 hours, MTT
[7] = Homo sapiens, HAP1, HAP1, Tables 6 and 7, unit inferred

| Compound | IC50 (22Rv1 cells; [5]) | IC50 (22Rv1 cells; [6]) | IC50 (HAP1 cells; [7]) | IC50 (V79 cells) | IC50 (SF188 cells) | IC50 (DIPG007 cells) | IC50 (Buffy A cells) | IC50 (Buffy C cells) | IC50 (Buffy M cells) | cytotoxicity to normal cell lines [1] | cytotoxicity in the cancer cell lines evaluated (human cancer cell lines) | tolerability of a single dose ([2]; 300 mg/kg) | tolerability of a single dose ([2]; 2000 mg/kg) | tolerability of a single dose ([2]; 8000 mg/kg) | body weight compared with untreated animals [3] | mutagenicity / genotoxicity (HPRT mutant frequency) [4] | other results |
| --- | --- | --- | --- | --- | --- | --- | --- | --- | --- | --- | --- | --- | --- | --- | --- | --- | --- |
| Nc1nc(=O)n([C@H]2C[C@H](O)[C@@H](CO)O2)cc1CO [2d5hmC, 5-hydroxymethyl-2′-deoxycytidine] | ≥ 25 µM | > 25 µM | 6.53 µM | > 25 µM | 8.97 µM | > 100 µM | > 25 µM | > 25 µM | > 25 µM | not cytotoxic to any of the normal cell lines evaluated | only cytotoxic to two cell lines evaluated | can tolerate | can tolerate | unable to tolerate | not statistically different | not to be mutagenic; also recorded: not mutagens | IC50 (HAP1 cells; HAP1, Chronic Myelogenous Leukemia (CML), 72 hours, MTT): > 3.03 µM |
| Cn1nnc2c(C(N)=O)ncn2c1=O [Temozolomide, 4-methyl-5-oxo-2,3,4,6,8-pentazabicyclo[4.3.0]nona-2,7,9-triene-9-carboxamide, reference compound] | – | > 25 µM | – | – | > 100 µM | > 100 µM | – | – | – | – | – | – | – | – | – | – | improvement of overall survival (glioblastoma multiforme): 2.5 months |
| Nc1nc(=O)n([C@H]2C[C@H](O)[C@@H](CO)O2)cc1C=O [2d5fC, 5-formyl-2′-deoxycytidine] | ≥ 25 µM | > 25 µM | ≥ 25 µM | > 25 µM | 28.2 µM | > 100 µM | > 25 µM | > 25 µM | > 25 µM | cytotoxic only to one normal human cell line | cytotoxic to a wide range of human cancer cells | can tolerate | can tolerate | unable to tolerate | not statistically different | not to be mutagenic; also recorded: not mutagens | IC50 (HAP1 cells; Homo sapiens, HAP1, 72 h, HAP1, Chronic Myelogenous Leukemia (CML), 72 hours, MTT): > 25 µM; IC50 (H1437 cells; H1437, Lung (metastatic non-small cell adenocarcinoma), 72 hours, MTT): 5.65 µM; IC50 (H1437 cells; H1437, Tables 6 and 7, unit inferred): 5.65 µM; IC50 (H1573 cells; H1573, Lung (metastatic adenocarcinoma), 72 hours, MTT): 7.72 µM; IC50 (H1573 cells; H1573, Tables 6 and 7, unit inferred): 7.72 µM |
